In PubChem BioAssay AID248 (DTP/NCI, 2004):
Several values for one entry are separate records, joined by “and”; a condition that tells them apart may be missing. Equal entries are not always repeated. Inconclusive results and toxic doses are left out. Cut-off read from the data, not from the text of the source: active = T/C of 150% or more; inactive = T/C below 125%.

Tested on: L1210 leukemia ip in BDF1 mice, survival T/C
Experiment: NCI In Vivo Anticancer Drug Screen. Data for tumor model L1210 Leukemia (intraperitoneal) in B6D2F1 (BDF1) mice
Settings: endpoint: mean survival time, higher = longer survival
Method in brief: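 Mice bearing the transplanted tumor received compound or vehicle. Survival of the treated group was divided by that of the vehicle-treated control group to give the ratio.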

[1] = dose: 200.0 mg/kg/injection, schedule: Q04DX003 (ip), vehicle: saline with Tween-80
[2] = dose: 100.0 mg/kg/injection, schedule: Q04DX003 (ip), vehicle: saline
[3] = dose: 200.0 mg/kg/injection, schedule: Q04DX003 (ip), vehicle: saline
[4] = dose: 50.0 mg/kg/injection, schedule: Q01DX001 (ip), vehicle: saline
[5] = dose: 100.0 mg/kg/injection, schedule: Q01DX001 (ip), vehicle: saline
[6] = dose: 200.0 mg/kg/injection, schedule: Q01DX001 (ip), vehicle: saline
[7] = dose: 400.0 mg/kg/injection, schedule: Q01DX001 (ip), vehicle: saline
[8] = dose: 100.0 mg/kg/injection, schedule: Q01DX001 (ip), vehicle: Klucel (hydroxypropylcellulose) (HPC)
[9] = dose: 200.0 mg/kg/injection, schedule: Q01DX001 (ip), vehicle: Klucel (hydroxypropylcellulose) (HPC)
[10] = dose: 400.0 mg/kg/injection, schedule: Q01DX001 (ip), vehicle: Klucel (hydroxypropylcellulose) (HPC)
[11] = dose: 6.25 mg/kg/injection, schedule: Q04DX003 (ip), vehicle: saline
[12] = dose: 12.5 mg/kg/injection, schedule: Q04DX003 (ip), vehicle: saline
[13] = dose: 25.0 mg/kg/injection, schedule: Q04DX003 (ip), vehicle: saline
[14] = dose: 100.0 mg/kg/injection, schedule: Q04DX003 (ip), vehicle: Klucel (hydroxypropylcellulose) (HPC)
[15] = dose: 200.0 mg/kg/injection, schedule: Q04DX003 (ip), vehicle: Klucel (hydroxypropylcellulose) (HPC)
[16] = dose: 400.0 mg/kg/injection, schedule: Q04DX003 (ip), vehicle: Klucel (hydroxypropylcellulose) (HPC)

Measured: T/C

CC(C)(Oc1ccc(Cl)cc1)C(=O)NC(N)=O
inactive: dose: 50.0 mg/kg/injection, schedule: Q01DX009 (ip), vehicle: saline 95 % of control | dose: 100.0 mg/kg/injection, schedule: Q01DX009 (ip), vehicle: saline 113 % of control | dose: 200.0 mg/kg/injection, schedule: Q01DX009 (ip), vehicle: saline 103 % of control

O=C(COCC(=O)N/N=C/c1ccc(Cl)c(Cl)c1)N/N=C/c1ccc(Cl)c(Cl)c1
inactive: dose: 6.25 mg/kg/injection, schedule: Q01DX009 (ip), vehicle: saline with Tween-80 92 % of control | dose: 12.5 mg/kg/injection, schedule: Q01DX009 (ip), vehicle: saline with Tween-80 90 % of control | dose: 25.0 mg/kg/injection, schedule: Q01DX009 (ip), vehicle: saline with Tween-80 89 % of control | [1] 86 % of control

CCCCOCCOCCOc1ccc(C(=O)O)cc1
inactive: dose: 50.0 mg/kg/injection, schedule: Q01DX009 (ip), vehicle: acetone 102 % of control | dose: 100.0 mg/kg/injection, schedule: Q01DX009 (ip), vehicle: acetone 97 % of control | [2] 94 % of control | dose: 200.0 mg/kg/injection, schedule: Q01DX009 (ip), vehicle: acetone 102 % of control | [3] 94 % of control

Nc1ncnc2c1nnn2C1CC(CO)C(O)C1O (centres undefined)
inactive: dose: 50.0 mg/kg/injection, schedule: Q04DX003 (ip), vehicle: other 112 % of control | dose: 67.0 mg/kg/injection, schedule: Q01DX009 (ip), vehicle: saline with Tween-80 122 % of control | dose: 67.0 mg/kg/injection, schedule: Q04DX003 (ip), vehicle: other 106 % of control | dose: 100.0 mg/kg/injection, schedule: Q01DX009 (ip), vehicle: saline with Tween-80 118 % of control | dose: 100.0 mg/kg/injection, schedule: Q04DX003 (ip), vehicle: other 114 % of control | dose: 150.0 mg/kg/injection, schedule: Q01DX009 (ip), vehicle: saline with Tween-80 118 % of control | dose: 150.0 mg/kg/injection, schedule: Q04DX003 (ip), vehicle: other 111 % of control | dose: 200.0 mg/kg/injection, schedule: Q04DX003 (ip), vehicle: other 123 % of control

CCOC(=O)/C(C)=N\N=C(/CCOC)COC
inactive: [4] 101 % of control | dose: 50.0 mg/kg/injection, schedule: Q01DX009 (ip), vehicle: carboxymethylcellulose (CMC) 117 % of control | [5] 101 % of control | [6] 101 % of control | [7] 95 % of control | dose: 400.0 mg/kg/injection, schedule: Q01DX009 (ip), vehicle: carboxymethylcellulose (CMC) 94 % of control

COC(=O)/C=C\C(=O)O (tested in a mixture with another compound)
inactive: dose: 15.5 mg/kg/injection, schedule: Q#A X Z (oral), vehicle: carboxymethylcellulose (CMC) 98 % of control | dose: 31.25 mg/kg/injection, schedule: Q#A X Z (ip), vehicle: carboxymethylcellulose (CMC) 101 % of control | dose: 31.5 mg/kg/injection, schedule: Q#A X Z (oral), vehicle: carboxymethylcellulose (CMC) 100 % of control | dose: 63.0 mg/kg/injection, schedule: Q#A X Z (oral), vehicle: carboxymethylcellulose (CMC) 100 % of control | dose: 126.0 mg/kg/injection, schedule: Q#A X Z (oral), vehicle: carboxymethylcellulose (CMC) 100 % of control

N=C1SCc2ccc3ccccc3c21
inactive: dose: 100.0 mg/kg/injection, schedule: Q01DX001 (ip), vehicle: other 92 % of control | dose: 200.0 mg/kg/injection, schedule: Q01DX001 (ip), vehicle: other 108 % of control | dose: 400.0 mg/kg/injection, schedule: Q01DX001 (ip), vehicle: other 97 % of control

O=C1OC(=O)C2C(c3ccccc3)C=C(Cl)C(CCCl)C12 (centres undefined)
inactive: [8] 101 % of control | [9] 97 % of control | [10] 95 % of control

O=P(O)(c1cc(Cl)cc(Cl)c1)c1cc(Cl)cc(Cl)c1
inactive: dose: 18.8 mg/kg/injection, schedule: Q01DX001 (ip), vehicle: saline 96 % of control | dose: 37.5 mg/kg/injection, schedule: Q01DX001 (ip), vehicle: saline 96 % of control | dose: 75.0 mg/kg/injection, schedule: Q01DX001 (ip), vehicle: saline 96 % of control

O=C(O)C(Oc1ccccc1O)C(=O)O
inactive: [2] 95 % of control | [3] 93 % of control

CCN(CC)CCCOC(=O)C(c1ccccc1)C1CCCCC1 (centres undefined)
inactive: dose: 6.25 mg/kg/injection, schedule: Q01DX009 (ip), vehicle: saline 97 % of control | [11] 100 % of control | dose: 12.5 mg/kg/injection, schedule: Q01DX009 (ip), vehicle: saline 94 % of control | [12] 102 % of control | dose: 25.0 mg/kg/injection, schedule: Q01DX009 (ip), vehicle: saline 94 % of control | [13] 102 % of control

COC1=NS(=O)(=O)N=C(c2ccc(OC)cc2)O1
inactive: dose: 100.0 mg/kg/injection, schedule: Q04DX002 (ip), vehicle: Klucel (hydroxypropylcellulose) (HPC) 103 % of control | dose: 200.0 mg/kg/injection, schedule: Q04DX002 (ip), vehicle: Klucel (hydroxypropylcellulose) (HPC) 100 % of control | dose: 400.0 mg/kg/injection, schedule: Q04DX002 (ip), vehicle: Klucel (hydroxypropylcellulose) (HPC) 89 % of control

O=c1ccn(C2SC(CO)C(O)C2O)c(=O)[nH]1 (centres undefined)
inactive: [4] 108 % of control | [5] 100 % of control | [6] 88 % of control | [7] 108 % of control

Cc1cc(Br)ccc1NNS(=O)(=O)c1cccc(N)c1
inactive: [8] 98 % of control | [14] 91 % of control | [9] 107 % of control | [15] 97 % of control | [10] 91 % of control | [16] 107 % of control

O=S1(=O)CCCN1c1ccccn1
inactive: dose: 100.0 mg/kg/injection, schedule: Q04DX002 (ip), vehicle: other 104 % of control | dose: 200.0 mg/kg/injection, schedule: Q04DX002 (ip), vehicle: other 89 % of control | dose: 400.0 mg/kg/injection, schedule: Q04DX002 (ip), vehicle: other 96 % of control

O=S(=O)(O)OC1CCCC1S(=O)(=O)O (centres undefined)
inactive: dose: 50.0 mg/kg/injection, schedule: Q01DX001 (ip), vehicle: carboxymethylcellulose (CMC) 96 % of control | dose: 100.0 mg/kg/injection, schedule: Q01DX001 (ip), vehicle: carboxymethylcellulose (CMC) 107 % of control | dose: 200.0 mg/kg/injection, schedule: Q01DX001 (ip), vehicle: carboxymethylcellulose (CMC) 107 % of control | dose: 400.0 mg/kg/injection, schedule: Q01DX001 (ip), vehicle: carboxymethylcellulose (CMC) 86 % of control

O=C1C(Br)=C(N2CC2)C(=O)C(Br)=C1N1CC1
inactive: dose: 1.56 mg/kg/injection, schedule: Q04DX003 (ip), vehicle: saline 104 % of control | dose: 3.12 mg/kg/injection, schedule: Q04DX003 (ip), vehicle: saline 109 % of control | [11] 104 % of control | [12] 106 % of control | [13] 104 % of control | dose: 50.0 mg/kg/injection, schedule: Q04DX003 (ip), vehicle: saline 103 % of control

CC1(CO)COC(c2ccccc2)=N1 (centres undefined)
inactive: dose: 100.0 mg/kg/injection, schedule: Q01DX009 (ip), vehicle: other 109 % of control | dose: 200.0 mg/kg/injection, schedule: Q01DX009 (ip), vehicle: other 103 % of control | dose: 400.0 mg/kg/injection, schedule: Q01DX009 (ip), vehicle: other 109 % of control

FC(F)(F)c1cc(Cl)ccc1Cl
inactive: dose: 80.0 mg/kg/injection, schedule: Q01DX009 (ip), vehicle: Klucel (hydroxypropylcellulose) (HPC) 100 % of control | [14] 101 % of control and 106 % of control | dose: 160.0 mg/kg/injection, schedule: Q01DX009 (ip), vehicle: Klucel (hydroxypropylcellulose) (HPC) 102 % of control | [15] 92 % of control and 104 % of control | dose: 320.0 mg/kg/injection, schedule: Q01DX009 (ip), vehicle: Klucel (hydroxypropylcellulose) (HPC) 111 % of control | [16] 99 % of control and 102 % of control

COC(=O)C1OC1c1cc(Cl)ccc1OC (centres undefined)
inactive: [5] 102 % of control | [6] 94 % of control | [7] 94 % of control

COc1ccc(C(=O)NS(=O)(=O)c2ccc(Cl)cc2)cc1
inactive: dose: 100.0 mg/kg/injection, schedule: Q04DX003 (ip), vehicle: saline with Tween-80 107 % of control | [1] 91 % of control | dose: 400.0 mg/kg/injection, schedule: Q04DX003 (ip), vehicle: saline with Tween-80 114 % of control
